Measured values: ChEMBL document CHEMBL1201862, “PubChem BioAssay data set” (2004)
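These data come from cells grown in 96-well plates and exposed to compound for 48 hours at five concentrations. GI50 is the concentration that inhibits growth by half.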 Calls of active or inactive are those of the source. Cut-off read from the data, not from the text of the source: active = GI50 up to about 1.1 µM and inactive = higher.

Legend:
Experiment in all cases: NCI anticancer screen, dose series, 48 h
OVCAR-4 = tested on: OVCAR-4
RXF 393 = tested on: RXF 393
ACHN = tested on: ACHN
NCI/ADR-RES = tested on: NCI/ADR-RES
T47D = tested on: T47D
IGROV-1 = tested on: IGROV-1
M14 = tested on: M14
CAKI-1 = tested on: CAKI-1
SF-268 = tested on: SF-268
HCC 2998 = tested on: HCC 2998
NCI-H522 = tested on: NCI-H522
RPMI-8226 = tested on: RPMI-8226
SNB-75 = tested on: SNB-75
KM12 = tested on: KM12
786-0 = tested on: 786-0
HCT-116 = tested on: HCT-116
K562 = tested on: K562
HOP-62 = tested on: HOP-62
TK-10 = tested on: TK-10

Measured: GI50

CC(=O)O[C@H]1CC[C@@]2(C)C(=CC[C@@H]3[C@@H]2CC[C@]2(C)C(=N/O)/C(=C\c4ccccc4)C[C@@H]32)C1
inactive: OVCAR-4 30.1 µM | RXF 393 9.48 µM | ACHN 23.6 µM | NCI/ADR-RES 7.08 µM | T47D 7.53 µM | IGROV-1 44.2 µM | M14 4.9 µM | CAKI-1 24.7 µM | SF-268 24.2 µM | HCC 2998 11.9 µM | NCI-H522 3.53 µM | RPMI-8226 33.7 µM | SNB-75 33.6 µM | KM12 3.2 µM | 786-0 13.9 µM | HCT-116 6.12 µM | K562 31.2 µM | HOP-62 16.7 µM | TK-10 24.2 µM

O=P1(c2ccccc2)C(c2ccccc2)=CC=C1c1ccccc1
inactive: OVCAR-4 10.6 µM | RXF 393 29.9 µM | ACHN 28 µM | NCI/ADR-RES 30.7 µM | T47D 8.95 µM | IGROV-1 39.8 µM | M14 18.4 µM | CAKI-1 50.7 µM | SF-268 24.5 µM | HCC 2998 25.2 µM | NCI-H522 20 µM | RPMI-8226 3.31 µM | SNB-75 20.7 µM | KM12 16.7 µM | 786-0 26 µM | HCT-116 9.25 µM | K562 3.95 µM | HOP-62 44.4 µM | TK-10 13.2 µM

Cc1nnc(N2C(=O)C(=Cc3ccc(Cl)cc3)N=C2c2ccc(Cl)cc2)nc1/C=C\c1ccc(N(C)C)cc1
inactive: OVCAR-4 > 100 µM | RXF 393 > 100 µM | ACHN > 100 µM | NCI/ADR-RES > 100 µM | T47D > 100 µM | IGROV-1 > 100 µM | M14 83.6 µM | CAKI-1 > 100 µM | SF-268 > 100 µM | HCC 2998 > 100 µM | NCI-H522 > 100 µM | RPMI-8226 72.3 µM | SNB-75 > 100 µM | KM12 > 100 µM | 786-0 > 100 µM | HCT-116 > 100 µM | K562 73.3 µM | HOP-62 > 100 µM | TK-10 > 100 µM

O=c1[nH]nc(-c2ccccc2)n1/N=C/c1ccc([N+](=O)[O-])cc1
inactive: OVCAR-4 3.85 µM | RXF 393 8.43 µM | ACHN 11.4 µM | NCI/ADR-RES 20.1 µM | T47D 13.8 µM | IGROV-1 > 58.7 µM | M14 96.2 µM | CAKI-1 12.3 µM | SF-268 13 µM | HCC 2998 > 45.4 µM | NCI-H522 > 100 µM | RPMI-8226 > 100 µM | SNB-75 10.4 µM | KM12 > 100 µM | 786-0 6.64 µM | HCT-116 25 µM | K562 > 100 µM | HOP-62 11 µM | TK-10 20 µM

O=C(c1cc2ccccc2[nH]1)N1C2CCC1CN(CCOC(c1ccc(F)cc1)c1ccc(F)cc1)CC2 (stereo not given)
inactive: OVCAR-4 > 100 µM | RXF 393 3.97 µM | ACHN 95.1 µM | NCI/ADR-RES > 100 µM | T47D 5.28 µM | IGROV-1 2.26 µM | M14 > 100 µM | CAKI-1 6.81 µM | SF-268 8.28 µM | HCC 2998 > 100 µM | NCI-H522 18.1 µM | RPMI-8226 9.2 µM | SNB-75 > 100 µM | KM12 60.3 µM | 786-0 > 100 µM | HCT-116 5.09 µM | K562 5.15 µM | HOP-62 > 100 µM | TK-10 > 100 µM

CC(C)N/C(=N\C#N)NS(=O)(=O)c1cnccc1NC1CCCCCCC1
inactive: OVCAR-4 > 100 µM | RXF 393 > 100 µM | ACHN > 100 µM | NCI/ADR-RES > 100 µM | T47D > 100 µM | IGROV-1 > 100 µM | M14 > 100 µM | CAKI-1 > 100 µM | SF-268 > 100 µM | HCC 2998 > 100 µM | NCI-H522 > 100 µM | RPMI-8226 39.8 µM | SNB-75 > 100 µM | KM12 > 100 µM | 786-0 > 100 µM | HCT-116 > 100 µM | K562 > 100 µM | HOP-62 > 100 µM | TK-10 > 100 µM

COC(=O)NN(C(=O)OC)c1c(-c2ccccc2)nc(SC)n1N
inactive: OVCAR-4 > 100 µM | RXF 393 > 100 µM | ACHN > 100 µM | NCI/ADR-RES > 100 µM | T47D > 100 µM | IGROV-1 > 100 µM | M14 > 100 µM | CAKI-1 > 100 µM | SF-268 > 100 µM | HCC 2998 > 100 µM | NCI-H522 > 100 µM | RPMI-8226 > 100 µM | SNB-75 > 100 µM | KM12 > 100 µM | 786-0 > 100 µM | HCT-116 > 100 µM | K562 > 100 µM | HOP-62 > 100 µM | TK-10 > 100 µM

CC(=O)C(C)CCOC1(C)OCCC1C (stereo not given)
inactive: OVCAR-4 > 100 µM | RXF 393 > 100 µM | ACHN > 100 µM | NCI/ADR-RES > 100 µM | T47D > 100 µM | IGROV-1 > 100 µM | M14 > 100 µM | CAKI-1 > 100 µM | SF-268 > 100 µM | HCC 2998 > 100 µM | NCI-H522 > 100 µM | RPMI-8226 > 100 µM | SNB-75 > 100 µM | KM12 > 100 µM | 786-0 > 100 µM | HCT-116 > 100 µM | K562 > 100 µM | HOP-62 > 100 µM | TK-10 > 100 µM

CC(=O)CC1(O)C(=O)c2c(Br)sc(Br)c2C1=O
inactive: OVCAR-4 18.6 µM | RXF 393 24.7 µM | ACHN 34.3 µM | NCI/ADR-RES 36.5 µM | T47D 30.9 µM | IGROV-1 17 µM | M14 17.8 µM | CAKI-1 17.3 µM | SF-268 30.2 µM | HCC 2998 17.8 µM | NCI-H522 18.4 µM | RPMI-8226 31.3 µM | SNB-75 59.7 µM | KM12 34.3 µM | 786-0 23.7 µM | HCT-116 19.8 µM | K562 32.8 µM | HOP-62 29 µM | TK-10 25.9 µM

c1cc2nnc1SCCSCCSc1ccc(nn1)SCCSCCS2
inactive: OVCAR-4 > 100 µM | RXF 393 > 100 µM | ACHN > 100 µM | NCI/ADR-RES > 100 µM | T47D > 100 µM | IGROV-1 > 100 µM | M14 > 100 µM | CAKI-1 > 100 µM | SF-268 > 100 µM | HCC 2998 > 100 µM | NCI-H522 > 100 µM | RPMI-8226 > 100 µM | SNB-75 18.5 µM | KM12 > 100 µM | 786-0 > 100 µM | HCT-116 > 100 µM | K562 > 100 µM | HOP-62 31 µM | TK-10 > 100 µM
